Source: paper PMC11992225, “Antibacterial compounds against non-growing and intracellular bacteria” (npj Antimicrobials and Resistance, 2025)
In brackets after ≈: the same amount, converted by molar mass. Several values for one entry are separate records, joined by “and”; a condition that tells them apart may be missing. Equal values may be shown once. Read-outs that look alike come from different tables or passages of the source.

What was measured:
non-growing UPEC CFT073 [1] = assay: Dose-dependent killing analysis (CFU spot-plating) of stationary-phase UPEC; type: cell-based, Escherichia coli
Procedure, shortened: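 Non-growing (stationary-phase) UPEC CFT073 treated with compounds in 96-well format at 200 μl, then 10-fold serially diluted in PBS and 10 μl spots plated on LB agar. Plates incubated overnight at 37 °C; colonies counted at lowest resolvable dilution to give CFU. Three biological replicates.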

[2] = tested on: non-growing S. aureus DSM2569; assay: Dose-dependent killing analysis (CFU spot-plating) of stationary-phase S. aureus; type: cell-based, Staphylococcus aureus; conditions: S. aureus; for Killing: average Δlog10(CFU/ml): vs 9,097 before treatment
Procedure, shortened: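 Stationary-phase S. aureus DSM2569 was grown and treated for 24 h in 1:4 CA-MHB at pH 7.4. Treated samples were serially diluted 10-fold in PBS and spot-plated on LB agar, which was incubated overnight at 37 °C. Survivors were counted as CFU over three biological replicates.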

non-growing UPEC CFT073 [3] = assay: Dilution-regrowth assay (screen, hit validation, dose-response) on stationary-phase UPEC; type: cell-based, Escherichia coli; conditions: for Regrowth: OD600 after dilution into drug-free medium (mean): OD600 at 6h or 8h
Procedure, shortened: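 Regrowth (OD600 after 6 h, 37 °C) of diluted non-growing CFT073, following 24 h compound treatment of 24 h stationary cultures, defines activity relative to untreated control. Screen at 20 µM, validation at 20, 10, 5 µM (duplicates), dose–response in three biological replicates fitted by five-parameter logistic.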

S. aureus DSM2569 = assay: MIC, standard microdilution assay, growing S. aureus; type: cell-based, Staphylococcus aureus; conditions: S. aureus; CA-MHB pH 7.4; read-out: MIC (μM) CA-MHB
Procedure, shortened: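 Standard microdilution protocol, triplicate wells. For S. flexneri the growth medium is TSB. The other three strains are grown in HEPES-buffered (40 mM, pH 7.4) CA-MHB, and UPEC is also run at pH 5.5 in LPM containing 30 mM MES.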

[4] = E. coli in 1:4 CA-MHB (pH 7.4), concentration 0.25
[5] = E. coli in 1:4 CA-MHB (pH 7.4), concentration 0.5
[6] = E. coli in 1:4 CA-MHB (pH 7.4), concentration 1
[7] = E. coli in 1:4 CA-MHB (pH 7.4), concentration 2.5
[8] = E. coli in 1:4 CA-MHB (pH 7.4), concentration 5
[9] = E. coli in 1:4 CA-MHB (pH 7.4), concentration 10
[10] = E. coli in LPM (pH 5.5), concentration 0.25
[11] = E. coli in LPM (pH 5.5), concentration 0.5
[12] = E. coli in LPM (pH 5.5), concentration 1
[13] = E. coli in LPM (pH 5.5), concentration 2.5
[14] = E. coli in LPM (pH 5.5), concentration 5
[15] = E. coli in LPM (pH 5.5), concentration 10

SMILES: CO[C@H]1/C=C/O[C@@]2(C)Oc3c(C)c(O)c4c(O)c(c(/C=N/N=C/N5CCCCC5)c(O)c4c3C2=O)NC(=O)/C(C)=C\C=C\[C@H](C)[C@H](O)[C@@H](C)[C@@H](O)[C@@H](C)[C@H](OC(C)=O)[C@@H]1C [FCE-22250]
- log10(CFU/ml) after treatment, single replicates (non-growing UPEC CFT073 [1]; [4]): 9.301 log10(CFU/ml) and 8.845 log10(CFU/ml) and 8.602 log10(CFU/ml)
- Killing: average Δlog10(CFU/ml) (non-growing UPEC CFT073 [1]; E. coli in 1:4 CA-MHB (pH 7.4), concentration 0.25, vs 8.977 before treatment): 0.061 log10(CFU/ml)
- log10(CFU/ml) after treatment, single replicates (non-growing UPEC CFT073 [1]; [5]): 9.505 log10(CFU/ml) and 9.176 log10(CFU/ml) and 8.301 log10(CFU/ml)
- Killing: average Δlog10(CFU/ml) (non-growing UPEC CFT073 [1]; E. coli in 1:4 CA-MHB (pH 7.4), concentration 0.5, vs 8.977 before treatment): -0.017 log10(CFU/ml)
- log10(CFU/ml) after treatment, single replicates (non-growing UPEC CFT073 [1]; [6]): 9.556 log10(CFU/ml) and 9.114 log10(CFU/ml) and 8.431 log10(CFU/ml)
- Killing: average Δlog10(CFU/ml) (non-growing UPEC CFT073 [1]; E. coli in 1:4 CA-MHB (pH 7.4), concentration 1, vs 8.977 before treatment): -0.057 log10(CFU/ml)
- log10(CFU/ml) after treatment, single replicates (non-growing UPEC CFT073 [1]; [7]): 9.415 log10(CFU/ml) and 8.954 log10(CFU/ml) and 8.342 log10(CFU/ml)
- Killing: average Δlog10(CFU/ml) (non-growing UPEC CFT073 [1]; E. coli in 1:4 CA-MHB (pH 7.4), concentration 2.5, vs 8.977 before treatment): 0.073 log10(CFU/ml)
- log10(CFU/ml) after treatment, single replicates (non-growing UPEC CFT073 [1]; [8]): 9.477 log10(CFU/ml) and 8.903 log10(CFU/ml) and 8.431 log10(CFU/ml)
- Killing: average Δlog10(CFU/ml) (non-growing UPEC CFT073 [1]; E. coli in 1:4 CA-MHB (pH 7.4), concentration 5, vs 8.977 before treatment): 0.040 log10(CFU/ml)
- log10(CFU/ml) after treatment, single replicates (non-growing UPEC CFT073 [1]; [9]): 9.519 log10(CFU/ml) and 8.845 log10(CFU/ml) and 8.778 log10(CFU/ml)
- Killing: average Δlog10(CFU/ml) (non-growing UPEC CFT073 [1]; E. coli in 1:4 CA-MHB (pH 7.4), concentration 10, vs 8.977 before treatment): -0.070 log10(CFU/ml)
- log10(CFU/ml) after treatment, single replicates (non-growing UPEC CFT073 [1]; [10]): 7.041 log10(CFU/ml) and 7.176 log10(CFU/ml) and 8.079 log10(CFU/ml)
- Killing: average Δlog10(CFU/ml) (non-growing UPEC CFT073 [1]; E. coli in LPM (pH 5.5), concentration 0.25, vs 7.350 before treatment): -0.082 log10(CFU/ml)
- log10(CFU/ml) after treatment, single replicates (non-growing UPEC CFT073 [1]; [11]): 6.845 log10(CFU/ml) and 6.778 log10(CFU/ml) and 8.000 log10(CFU/ml)
- Killing: average Δlog10(CFU/ml) (non-growing UPEC CFT073 [1]; E. coli in LPM (pH 5.5), concentration 0.5, vs 7.350 before treatment): 0.143 log10(CFU/ml)
- log10(CFU/ml) after treatment, single replicates (non-growing UPEC CFT073 [1]; [12]): 7.176 log10(CFU/ml) and 7.255 log10(CFU/ml) and 8.000 log10(CFU/ml)
- Killing: average Δlog10(CFU/ml) (non-growing UPEC CFT073 [1]; E. coli in LPM (pH 5.5), concentration 1, vs 7.350 before treatment): -0.127 log10(CFU/ml)
- log10(CFU/ml) after treatment, single replicates (non-growing UPEC CFT073 [1]; [13]): 6.845 log10(CFU/ml) and 6.954 log10(CFU/ml) and 7.845 log10(CFU/ml)
- Killing: average Δlog10(CFU/ml) (non-growing UPEC CFT073 [1]; E. coli in LPM (pH 5.5), concentration 2.5, vs 7.350 before treatment): 0.136 log10(CFU/ml)
- log10(CFU/ml) after treatment, single replicates (non-growing UPEC CFT073 [1]; [14]): 6.778 log10(CFU/ml) and 6.845 log10(CFU/ml) and 7.785 log10(CFU/ml)
- Killing: average Δlog10(CFU/ml) (non-growing UPEC CFT073 [1]; E. coli in LPM (pH 5.5), concentration 5, vs 7.350 before treatment): 0.214 log10(CFU/ml)
- log10(CFU/ml) after treatment, single replicates (non-growing UPEC CFT073 [1]; [15]): 6.954 log10(CFU/ml) (2×) and 7.531 log10(CFU/ml)
- Killing: average Δlog10(CFU/ml) (non-growing UPEC CFT073 [1]; E. coli in LPM (pH 5.5), concentration 10, vs 7.350 before treatment): 0.204 log10(CFU/ml)
- log10(CFU/ml) after treatment, single replicates ([2]; concentration 0.1): 9.505 log10(CFU/ml) and 8.903 log10(CFU/ml) and 9.033 log10(CFU/ml)
- Killing: average Δlog10(CFU/ml) ([2]; concentration 0.1): -0.050 log10(CFU/ml)
- log10(CFU/ml) after treatment, single replicates ([2]; concentration 0.5): 9.107 log10(CFU/ml) and 9.017 log10(CFU/ml) and 8.505 log10(CFU/ml)
- Killing: average Δlog10(CFU/ml) ([2]; concentration 0.5): 0.221 log10(CFU/ml)
- log10(CFU/ml) after treatment, single replicates ([2]; concentration 2.5): 8.929 log10(CFU/ml) and 8.940 log10(CFU/ml) and 8.806 log10(CFU/ml)
- Killing: average Δlog10(CFU/ml) ([2]; concentration 2.5): 0.205 log10(CFU/ml)
- log10(CFU/ml) after treatment, single replicates ([2]; concentration 10): 8.973 log10(CFU/ml) and 9.017 log10(CFU/ml) and 8.944 log10(CFU/ml)
- Killing: average Δlog10(CFU/ml) ([2]; concentration 10): 0.119 log10(CFU/ml)
- Regrowth: OD600 after dilution into drug-free medium (mean) (non-growing UPEC CFT073 [3]; [4]): 0.613
- Regrowth: OD600 after dilution into drug-free medium (mean) (non-growing UPEC CFT073 [3]; [5]): 0.587
- Regrowth: OD600 after dilution into drug-free medium (mean) (non-growing UPEC CFT073 [3]; [6]): 0.569
- Regrowth: OD600 after dilution into drug-free medium (mean) (non-growing UPEC CFT073 [3]; [7]): 0.549
- Regrowth: OD600 after dilution into drug-free medium (mean) (non-growing UPEC CFT073 [3]; [8]): 0.529
- Regrowth: OD600 after dilution into drug-free medium (mean) (non-growing UPEC CFT073 [3]; [9]): 0.515
- Regrowth: OD600 after dilution into drug-free medium (mean) (non-growing UPEC CFT073 [3]; E. coli in 1:4 CA-MHB (pH 7.4), concentration 30): 0.347
- Regrowth: OD600 after dilution into drug-free medium (mean) (non-growing UPEC CFT073 [3]; [10]): 0.566
- Regrowth: OD600 after dilution into drug-free medium (mean) (non-growing UPEC CFT073 [3]; [11]): 0.535
- Regrowth: OD600 after dilution into drug-free medium (mean) (non-growing UPEC CFT073 [3]; [12]): 0.500
- Regrowth: OD600 after dilution into drug-free medium (mean) (non-growing UPEC CFT073 [3]; [13]): 0.418
- Regrowth: OD600 after dilution into drug-free medium (mean) (non-growing UPEC CFT073 [3]; [14]): 0.299
- Regrowth: OD600 after dilution into drug-free medium (mean) (non-growing UPEC CFT073 [3]; [15]): 0.206
- Regrowth: OD600 after dilution into drug-free medium (mean) (non-growing UPEC CFT073 [3]; E. coli in LPM (pH 5.5), concentration 30): 0.134
- EC50 (non-growing UPEC CFT073 [3]; E. coli, LPM pH 5.5, regrowth delay of non-growing bacteria, 24 h treatment, OD600 6 h after 2500-fold dilution, read-out: EC50): 3.97 µM
- EC50 (non-growing UPEC CFT073 [3]; LPM pH 5.5 (red curve), medium assigned by comparison with Dataset 1, read-out: EC50 (regrowth inhibition curve, Fig. S4)): 3.45 µM
- MIC (S. aureus DSM2569): 0.0125 µM (≈ 0.0104 µg/mL)
